Results reported in patent US11400063B2, “Early administration of low-dose colchicine after myocardial infarction” (INSTITUT DE CARDIOLOGIE DE MONTREAL, priority 2019, dated 2022).
Read-outs that look alike come from different tables or passages of the source.

Key:
[1] = system: patients recruited within 30 days after a myocardial infarction; test: COLCOT safety and adverse events (safety population); assay type: in vivo, human
Protocol: All serious adverse events were recorded. The only other adverse events recorded were those that were considered to be related to the gastrointestinal system, events that were judged by the investigator to be related to colchicine or placebo, or laboratory abnormalities that had been judged by the investigator to be clinically significant.

[2] = system: patients with stable coronary disease; conditions: cited from earlier work
[3] = system: patients with acute coronary syndromes (ACS); conditions: COPS, cited from earlier work
patients with stable CAD = conditions: cited from earlier work
[4] = safety population, listed as colchicine
[5] = LoDoCo, colchicine vs control (no colchicine)

COc1cc2c(c(OC)c1OC)-c1ccc(OC)c(=O)cc1[C@@H](NC(C)=O)CC2 [Colchicine, colchicine]
trial regimen discontinued, % of patients ([1]; at the end of the trial): 18.4%
incidence of septic shock ([1]; in contrast to canakinumab): did not increase
Anemia, number of patients ([1]; safety population): 14 number
Anemia, percent of patients ([1]; safety population): (0.6) percent
Any related adverse event, percent of patients ([1]; safety population): (16.0) percent
Any serious adverse event, number of patients ([1]; safety population): 383 number
Any serious adverse event, percent of patients ([1]; safety population): (16.4) percent
Cancer, number of patients ([1]; safety population): 43 number
Cancer, percent of patients ([1]; safety population): (1.8) percent
Diarrhea adverse event, number of patients ([1]; safety population): 225 number
Diarrhea adverse event, percent of patients ([1]; safety population): (9.7) percent
Flatulence adverse event, number of patients ([1]; safety population): 15 number
Flatulence adverse event, percent of patients ([1]; safety population): (0.6) percent
Gastrointestinal adverse event, number of patients ([1]; safety population): 408 number
Gastrointestinal adverse event, percent of patients ([1]; safety population): (17.5) percent
Gastrointestinal hemorrhage, number of patients ([1]; safety population): 7 number
Gastrointestinal hemorrhage, percent of patients ([1]; safety population): (0.3) percent
Gastrointestinal serious adverse event, number of patients ([1]; safety population): 46 number
Gastrointestinal serious adverse event, percent of patients ([1]; safety population): (2.0 ) percent
Hospitalization for heart failure, number of patients ([1]; safety population): 25 number
Hospitalization for heart failure, percent of patients ([1]; safety population): (1.1) percent
Infection serious adverse event, number of patients ([1]; safety population): 51 number
Infection serious adverse event, percent of patients ([1]; safety population): (2.2) percent
Leukopenia, number of patients ([1]; safety population): 2 number
Leukopenia, percent of patients ([1]; safety population): (0.1) percent
Nausea adverse event, number of patients ([1]; safety population): 43 number
Nausea adverse event, percent of patients ([1]; safety population): (1.8) percent
Pneumonia serious adverse event, number of patients ([1]; safety population): 21 number
Pneumonia serious adverse event, percent of patients ([1]; safety population): (0.9) percent
Septic shock serious adverse event, number of patients ([1]; safety population): 2 number
Septic shock serious adverse event, percent of patients ([1]; safety population): (0.1) percent
Thrombocytopenia, number of patients ([1]; safety population): 3 number
Thrombocytopenia, percent of patients ([1]; safety population): (0.1) percent
Any related adverse event, number of patients ([1]; safety population, N = 2330): 372 number
Any related adverse event, percent of patients [1, 4]: 16.0%
Any serious adverse event, percent of patients [1, 4]: 16.4%
Diarrhea adverse event, percent of patients [1, 4]: 9.7%
Gastrointestinal adverse event, percent of patients [1, 4]: 17.5%
Infection serious adverse event, percent of patients [1, 4]: 2.2%
Nausea adverse event, percent of patients [1, 4]: 1.8%
Pneumonia serious adverse event, percent of patients [1, 4]: 0.9%
serious adverse event of myopathy linked to colchicine ([1]; statins used in 99% of trial participants): no serious adverse event
Myocardial infarction, Events N ([2]; LoDoCo, N = 250, median follow-up 24 months): 4 N
Ischemic stroke, HR (95% CI) [2, 5]: 0.23 (0.03-2.03)
Myocardial infarction, HR (95% CI) [2, 5]: 0.25 (0.08-0.76)
Ischemic stroke, Events % ([2]; LoDoCo): 0.4%
Ischemic stroke, Events N ([2]; LoDoCo): 1 N
Myocardial infarction, Events % ([2]; LoDoCo): 1.6%
cardiovascular events vs those not receiving colchicine ([2]; colchicine 0.5 mg once daily, 532 patients, not placebo-controlled): fewer cardiovascular events
Primary composite outcome (cardiovascular mortality, myocardial infarction, ischemic stroke, urgent revascularization), Events N ([3]; N = 396, median follow-up 12 months): 19 N
Cardiovascular mortality, HR (95% CI) ([3]; colchicine vs placebo): 3.09 (0.32-29.71)
Ischemic stroke, HR (95% CI) ([3]; colchicine vs placebo): 0.34 (0.07-1.70)
Myocardial infarction, HR (95% CI) ([3]; colchicine vs placebo): 0.52 (0.25-1.07)
Primary composite outcome, HR (95% CI) ([3]; colchicine vs placebo): 0.47 (0.27-0.82)
Urgent coronary revascularization, HR (95% CI) ([3]; colchicine vs placebo): 0.26 (0.07-0.92)
all-cause mortality, HR ([3]; colchicine vs placebo): 8.20
Cardiovascular mortality, Events % [3]: 0.8%
Cardiovascular mortality, Events N [3]: 3 N
Ischemic stroke, Events % [3]: 0.5%
Ischemic stroke, Events N [3]: 2 N
Myocardial infarction, Events % [3]: 3.7%
Myocardial infarction, Events N [3]: 11 N
Primary composite outcome, Events % [3]: 4.8%
Urgent coronary revascularization, Events % [3]: 0.8%
Urgent coronary revascularization, Events N [3]: 3 N
Primary composite outcome (cardiovascular mortality, myocardial infarction, ischemic stroke, urgent revascularization), Events N (patients with stable CAD; LoDoCo2, N = 2762, median follow-up 28.6 months): 187 N
Cardiovascular mortality, HR (95% CI) (patients with stable CAD; LoDoCo2, colchicine vs placebo): 0.80 (0.44-1.44)
Ischemic stroke, HR (95% CI) (patients with stable CAD; LoDoCo2, colchicine vs placebo): 0.66 (0.35-1.25)
Myocardial infarction, HR (95% CI) (patients with stable CAD; LoDoCo2, colchicine vs placebo): 0.70 (0.53-0.93)
Primary composite outcome, HR (95% CI) (patients with stable CAD; LoDoCo2, colchicine vs placebo): 0.69 (0.57-0.83)
Urgent coronary revascularization, HR (95% CI) (patients with stable CAD; LoDoCo2, colchicine vs placebo): 0.75 (0.60-0.94)
all-cause mortality, HR (patients with stable CAD; LoDoCo2, colchicine vs placebo): 1.21
Myocardial infarction, HR (95% CI) (patients with stable CAD; LoDoCo2, colchicine vs placebo, listed as colchicine): 0.70
Cardiovascular mortality, Events % (patients with stable CAD; LoDoCo2): 0.7%
Cardiovascular mortality, Events N (patients with stable CAD; LoDoCo2): 20 N
Ischemic stroke, Events % (patients with stable CAD; LoDoCo2): 0.6%
Ischemic stroke, Events N (patients with stable CAD; LoDoCo2): 16 N
Myocardial infarction, Events % (patients with stable CAD; LoDoCo2): 3.0%
Myocardial infarction, Events N (patients with stable CAD; LoDoCo2): 83 N
Primary composite outcome, Events % (patients with stable CAD; LoDoCo2): (6.8%)
Urgent coronary revascularization, Events % (patients with stable CAD; LoDoCo2): (4.9%)
Urgent coronary revascularization, Events N (patients with stable CAD; LoDoCo2): 135 N
